Test results published in patent US20240116985A1, “STAPLED PEPTIDES AND METHODS THEREOF” (priority 2020, published 2024).
Values after ≈ are worked out from the molar mass of the structure shown. Where two headings read alike, the source gives them in different places.

What was measured:
[1] = molecular target: T1, full-length beta-Catenin (Uniprot ID P35222) (Homo sapiens, UniProt P35222); experiment: Fluorescence polarization IC50 (beta-catenin / 5FAM-TCF4 10-53 competition); format: binding
T1 construct: 10 nM full-length beta-Catenin (Uniprot ID P35222)
T1 sequence (P35222 1-781): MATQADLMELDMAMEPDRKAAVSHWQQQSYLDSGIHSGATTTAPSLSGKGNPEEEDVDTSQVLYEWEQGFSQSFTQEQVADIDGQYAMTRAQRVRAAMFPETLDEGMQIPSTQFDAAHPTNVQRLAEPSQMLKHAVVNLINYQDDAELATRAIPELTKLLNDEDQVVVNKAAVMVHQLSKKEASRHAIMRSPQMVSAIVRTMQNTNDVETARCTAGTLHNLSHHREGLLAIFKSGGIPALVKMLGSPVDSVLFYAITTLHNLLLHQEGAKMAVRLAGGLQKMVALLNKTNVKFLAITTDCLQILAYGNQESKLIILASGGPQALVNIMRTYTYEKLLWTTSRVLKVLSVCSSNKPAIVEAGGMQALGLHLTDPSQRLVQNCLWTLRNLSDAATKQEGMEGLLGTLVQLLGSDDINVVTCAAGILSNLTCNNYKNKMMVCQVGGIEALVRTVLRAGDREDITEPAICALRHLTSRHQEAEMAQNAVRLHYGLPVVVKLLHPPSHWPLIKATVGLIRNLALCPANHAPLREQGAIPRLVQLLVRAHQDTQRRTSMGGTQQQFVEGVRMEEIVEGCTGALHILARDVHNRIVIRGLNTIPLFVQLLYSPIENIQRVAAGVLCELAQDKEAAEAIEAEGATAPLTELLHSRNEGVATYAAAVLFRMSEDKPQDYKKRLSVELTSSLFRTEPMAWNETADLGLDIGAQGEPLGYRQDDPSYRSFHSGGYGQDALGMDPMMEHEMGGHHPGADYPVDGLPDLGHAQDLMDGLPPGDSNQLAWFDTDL

CHI Log D procedure = format: physicochemical; details: for chromatographic logD: pH 7.4, CHI Log D; for CHI Log D: pH 7.4
Solubility in PBS = format: physicochemical
How it was run: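 Solubility is derived from HPLC peak areas: the ratio of the PBS supernatant peak to a 50 μM DMSO peptide peak, times 50 uM.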

[2] = Table E2-1, read-out: beta-Catenin FP IC50
[3] = fluorescence polarization, beta-catenin, read-out: FP EC50

| Structure (SMILES) | IC50 [1, 2] | chromatographic logD (CHI Log D procedure) | Solubility (Solubility in PBS; Solubility (uM)) | IC50 [1, 3] | CHI Log D (CHI Log D procedure) | Solubility (Solubility in PBS) |
| --- | --- | --- | --- | --- | --- | --- |
| CC(=O)N1CCC[C@]12CC=CCCCC1(CCCC=CCCCCCC[C@@](C)(C(=O)N[C@@H](Cc3c[nH]cn3)C(=O)N[C@@H](Cc3csc4ccccc34)C(=O)N[C@@H](CCC(N)=O)C(N)=O)NC(=O)[C@H](C)NC(=O)[C@H](Cc3ccccc3)NC(=O)[C@H](C)NC(=O)[C@H](C)NC(=O)[C@H](CC(=O)O)NC(=O)[C@H](CC(=O)O)NC1=O)NC(=O)[C@H](C)NC(=O)[C@H](CC(=O)O)NC2=O (stereo partly drawn) [I-362, Ac-PL3-Asp-Ala-B5-Asp-Asp-Ala-Ala-Phe-Ala-S8-His-BztA-Gln-NH2] | 3660 nM | 1.44 | 47 µM (≈ 82.7 µg/mL) |  |  |  |
| CC(=O)N1CCC[C@]12CC=CCCCC1(CCCC=CCCCCCC[C@@](C)(C(=O)N[C@@H](Cc3ccccc3)C(=O)N[C@@H](Cc3csc4ccccc34)C(=O)N[C@@H](CCC(N)=O)C(N)=O)NC(=O)[C@H](C)NC(=O)[C@H](Cc3ccccc3C)NC(=O)[C@H](C)NC(=O)[C@H](C)NC(=O)[C@H](CC(=O)O)NC(=O)[C@H](CC(=O)O)NC1=O)NC(=O)[C@H](C)NC(=O)[C@H](CC(=O)O)NC2=O (stereo partly drawn) [I-365, Ac-PL3-Asp-Ala-B5-Asp-Asp-Ala-Ala-2MeF-Ala-S8-Phe-BztA-Gln-NH2] | 2720 nM |  |  | 2720 nM | 2.038 | 48 µM (≈ 85.6 µg/mL) |
| CC(=O)N1CCC[C@]12CC=CCCCC1(CCCC=CCCCCCC[C@@](C)(C(=O)N[C@@H](Cc3ccc(C)cc3)C(=O)N[C@@H](Cc3csc4ccccc34)C(=O)N[C@@H](CCC(N)=O)C(N)=O)NC(=O)[C@H](C)NC(=O)[C@H](Cc3ccccc3)NC(=O)[C@H](C)NC(=O)[C@H](C)NC(=O)[C@H](CC(=O)O)NC(=O)[C@H](CC(=O)O)NC1=O)NC(=O)[C@H](C)NC(=O)[C@H](CC(=O)O)NC2=O (stereo partly drawn) [I-369, Ac-PL3-Asp-Ala-B5-Asp-Asp-Ala-Ala-Phe-Ala-S8-4MeF-BztA-Gln-NH2] | 2310 nM | 1.66 | 40 µM (≈ 71.4 µg/mL) |  |  |  |
| CC(=O)N1CCC[C@]12CC=CCCCC1(CCCC=CCCCCCC[C@@](C)(C(=O)N[C@@H](Cc3ccccc3)C(=O)N[C@@H](Cc3csc4ccccc34)C(=O)N[C@@H](CCC(N)=O)C(N)=O)NC(=O)[C@H](C)NC(=O)[C@H](Cc3ccc4ccccc4c3)NC(=O)[C@H](C)NC(=O)[C@H](C)NC(=O)[C@H](CC(=O)O)NC(=O)[C@H](CC(=O)O)NC1=O)NC(=O)[C@H](C)NC(=O)[C@H](CC(=O)O)NC2=O (stereo partly drawn) [I-370, Ac-PL3-Asp-Ala-B5-Asp-Asp-Ala-Ala-2NapA-Ala-S8-Phe-BztA-Gln-NH2] | 1560 nM | 2.18 | 47 µM (≈ 85.5 µg/mL) |  |  |  |
| CC(=O)N1CCC[C@]12CC=CCCCC1(CCCC=CCCCCCC[C@@](C)(C(=O)N[C@@H](Cc3cccc(F)c3)C(=O)N[C@@H](Cc3csc4ccccc34)C(=O)N[C@@H](CCC(N)=O)C(N)=O)NC(=O)[C@H](C)NC(=O)[C@H](Cc3ccccc3)NC(=O)[C@H](C)NC(=O)[C@H](C)NC(=O)[C@H](CC(=O)O)NC(=O)[C@H](CC(=O)O)NC1=O)NC(=O)[C@H](C)NC(=O)[C@H](CC(=O)O)NC2=O (stereo partly drawn) [I-371, Ac-PL3-Asp-Ala-B5-Asp-Asp-Ala-Ala-Phe-Ala-S8-3FF-BztA-Gln-NH2] | 1390 nM | 2.14 | 48 µM (≈ 85.8 µg/mL) |  |  |  |
| CC(=O)N1CCC[C@]12CC=CCCCC1(CCCC=CCCCCCC[C@@](C)(C(=O)N[C@@H](Cc3cccc(F)c3)C(=O)N[C@@H](Cc3csc4ccccc34)C(=O)N[C@@H](CCC(N)=O)C(N)=O)NC(=O)[C@H](C)NC(=O)[C@H](Cc3ccccc3)NC(=O)[C@H](C)NC(=O)[C@H](C)NC(=O)[C@H](CCC(=O)O)NC(=O)[C@H](CC(=O)O)NC1=O)NC(=O)[C@H](C)NC(=O)[C@H](CC(=O)O)NC2=O (stereo partly drawn) [I-372, Ac-PL3-Asp-Ala-B5-Asp-Glu-Ala-Ala-Phe-Ala-S8-3FF-BztA-Gln-NH2] | 2090 nM | 2.17 | 44 µM (≈ 79.3 µg/mL) |  |  |  |
| CC(=O)N1CCC[C@]12CC=CCCCC1(CCCC=CCCCCCC[C@@](C)(C(=O)N[C@@H](Cc3ccccc3)C(=O)N[C@@H](Cc3csc4ccccc34)C(=O)N[C@@H](CCC(N)=O)C(N)=O)NC(=O)[C@H](C(C)C)NC(=O)[C@H](Cc3cccc(C(F)(F)F)c3)NC(=O)[C@H](C)NC(=O)[C@H](C)NC(=O)[C@H](CC(=O)O)NC(=O)[C@H](CC(=O)O)NC1=O)NC(=O)[C@H](C)NC(=O)[C@H](CC(=O)O)NC2=O (stereo partly drawn) [I-373, Ac-PL3-Asp-Ala-B5-Asp-Asp-Ala-Ala-3F3MeF-Val-S8-Phe-BztA-Gln-NH2] | 945 nM | 2.3 | 26 µM (≈ 48.5 µg/mL) |  |  |  |
| CC(=O)N1CCC[C@]12CC=CCCCC1(CCCC=CCCCCCC[C@@](C)(C(=O)N[C@@H](Cc3ccccc3)C(=O)N[C@@H](Cc3csc4ccccc34)C(=O)N[C@@H](CCC(N)=O)C(N)=O)NC(=O)[C@H](C)NC(=O)[C@H](Cc3cccc(C(F)(F)F)c3)NC(=O)[C@H](C)NC(=O)[C@H](C)NC(=O)[C@H](CC(=O)O)NC(=O)[C@H](CC(=O)O)NC1=O)NC(=O)[C@H](C)NC(=O)[C@H](CC(=O)O)NC2=O (stereo partly drawn) [I-374, Ac-PL3-Asp-Ala-B5-Asp-Asp-Ala-Ala-3F3MeF-Ala-S8-Phe-BztA-Gln-NH2] | 3010 nM |  |  | 3010 nM | 2.242 | 49 µM (≈ 90.1 µg/mL) |
| CC(=O)N1CCC[C@]12CC=CCCCC1(CCCC=CCCCCCC[C@@](C)(C(=O)N[C@@H](Cc3ccccc3)C(=O)N[C@@H](Cc3csc4ccccc34)C(=O)N[C@@H](CCC(N)=O)C(N)=O)NC(=O)[C@H](C)NC(=O)[C@H](Cc3cccc(C(F)(F)F)c3)NC(=O)[C@H](C)NC(=O)[C@H](C)NC(=O)[C@H](CC(=O)O)NC(=O)[C@H](CC(=O)O)NC1=O)NC(=O)[C@H](C)NC(=O)[C@H](CC(=O)O)NC2=O (stereo partly drawn) [I-375, Ac-PL3-Asp-Ala-B5-Asp-Asp-Ala-Ala-3F3MeF-Ala-S8-Phe-BztA-Gln-NH2] |  |  |  | 3010 nM | 2.242 | 49 µM (≈ 90.1 µg/mL) |
| CC(=O)N1CCC[C@]12CC=CCCCC1(CCCC=CCCCCCC[C@@](C)(C(=O)N[C@@H](Cc3ccccc3)C(=O)N[C@@H](Cc3csc4ccccc34)C(=O)N[C@@H](CCC(N)=O)C(N)=O)NC(=O)[C@H](C)NC(=O)[C@H](Cc3cccc(C(F)(F)F)c3)NC(=O)[C@H](C)NC(=O)[C@H](C)NC(=O)[C@H](CC(=O)O)NC(=O)[C@H](CC(=O)O)NC1=O)NC(=O)[C@H](C)NC(=O)[C@H](CC(=O)O)NC2=O (stereo partly drawn) [I-376, Ac-PL3-Asp-Ala-B5-Asp-Asp-Ala-Ala-3F3MeF-Ala-S8-Phe-BztA-Gln-NH2] | 1320 nM |  |  | 1320 nM | 2.296 | 48 µM (≈ 88.2 µg/mL) |
| CC(=O)N1CCC[C@]12CC=CCCCC1(CCCC=CCCCCCC[C@@](C)(C(=O)N[C@@H](Cc3ccccc3)C(=O)N[C@@H](Cc3csc4ccccc34)C(=O)N[C@@H](CCC(N)=O)C(N)=O)NC(=O)[C@H](C)NC(=O)[C@H](Cc3cccc(C(F)(F)F)c3)NC(=O)[C@H](C)NC(=O)[C@H](C)NC(=O)[C@H](CC(=O)O)NC(=O)[C@H](CC(=O)O)NC1=O)NC(=O)[C@H](C)NC(=O)[C@H](CC(=O)O)NC2=O (stereo partly drawn) [I-377, Ac-PL3-Asp-Ala-B5-Asp-Asp-Ala-Ala-3F3MeF-Ala-S8-Phe-BztA-Gln-NH2] |  |  |  | 1320 nM | 2.296 | 48 µM (≈ 88.2 µg/mL) |
| CC(=O)N1CCC[C@]12CC=CCCCC1(CCCC=CCCCCCC[C@@](C)(C(=O)N[C@@H](Cc3ccccc3)C(=O)N[C@@H](Cc3csc4ccccc34)C(=O)N[C@@H](CCC(N)=O)C(N)=O)NC(=O)[C@H](CCC(N)=O)NC(=O)[C@H](Cc3cccc(C(F)(F)F)c3)NC(=O)[C@H](C)NC(=O)[C@H](C)NC(=O)[C@H](CC(=O)O)NC(=O)[C@H](CC(=O)O)NC1=O)NC(=O)[C@H](C)NC(=O)[C@H](CC(=O)O)NC2=O (stereo partly drawn) [I-378, Ac-PL3-Asp-Ala-B5-Asp-Asp-Ala-Ala-3F3MeF-Gln-S8-Phe-BztA-Gln-NH2] | 1340 nM |  |  | 1340 nM | 2.143 | 50 µM (≈ 94.8 µg/mL) |
